Laboratory results: ChEMBL document CHEMBL1201862, “PubChem BioAssay data set” (2004)
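Grown in 96-well plates, cells were treated for 48 hours with each compound at five concentrations. Insufficient inhibition: endpoint recorded as highest concentration tested. Here, GI50 denotes the concentration required for 50% inhibition of growth.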 The source made the active and inactive calls. No stated cut-off is given here; in the data, active = GI50 up to about 1.1 µM and inactive = higher.

Columns and labels:
Assay in all cases: growth of human tumour cells (NCI), 48 h
ACHN = system: ACHN
Malme-3M = system: Malme-3M
NCI-H23 = system: NCI-H23
SK-OV-3 = system: SK-OV-3
SN12C = system: SN12C
OVCAR-8 = system: OVCAR-8
UACC-62 = system: UACC-62
SK-MEL-5 = system: SK-MEL-5
KM12 = system: KM12
SF-539 = system: SF-539
HT-29 = system: HT-29
SK-MEL-2 = system: SK-MEL-2
HCT-116 = system: HCT-116
SF-268 = system: SF-268
A549 = system: A549
HOP-62 = system: HOP-62
RXF 393 = system: RXF 393

SMILES | GI50 (ACHN) | GI50 (Malme-3M) | GI50 (NCI-H23) | GI50 (SK-OV-3) | GI50 (SN12C) | GI50 (OVCAR-8) | GI50 (UACC-62) | GI50 (SK-MEL-5) | GI50 (KM12) | GI50 (SF-539) | GI50 (HT-29) | GI50 (SK-MEL-2) | GI50 (HCT-116) | GI50 (SF-268) | GI50 (A549) | GI50 (HOP-62) | GI50 (RXF 393)
C#C[C@]1(O)CCC2C3CCc4cc(Oc5nc(F)nc(-c6c7cc8ccccc8cc7c7n6CCS7)n5)ccc4C3CCC21C (stereo not given in full) | > 100 µM (inactive) | 53.6 µM (inactive) | 54.1 µM (inactive) | 45.4 µM (inactive) | 41.5 µM (inactive) | 53.8 µM (inactive) | 20.8 µM (inactive) | 25.4 µM (inactive) | 33.1 µM (inactive) | 30.1 µM (inactive) | 26.2 µM (inactive) | 28.8 µM (inactive) | 33 µM (inactive) | 56.9 µM (inactive) | 41.3 µM (inactive) | 43.3 µM (inactive) | 28.1 µM (inactive)
CC(=O)N1[C@H](C(=O)O)CS[C@H]1c1ccncc1 | > 100 µM (inactive) | > 100 µM (inactive) | > 100 µM (inactive) |  | > 100 µM (inactive) | 32.7 µM (inactive) | > 100 µM (inactive) | > 100 µM (inactive) | > 100 µM (inactive) | > 100 µM (inactive) | > 100 µM (inactive) |  | > 100 µM (inactive) | > 100 µM (inactive) | > 100 µM (inactive) | > 100 µM (inactive) | > 100 µM (inactive)
CCNC(=O)C(O)C1(O)CCC2[C@@H]3CCC4=CC(=O)C=C[C@]4(C)C3[C@@H](O)C[C@@]21C (stereo not given in full) | > 100 µM (inactive) | > 100 µM (inactive) | > 100 µM (inactive) | > 100 µM (inactive) | 53.2 µM (inactive) | > 100 µM (inactive) | > 100 µM (inactive) |  | > 100 µM (inactive) | > 100 µM (inactive) | > 100 µM (inactive) | > 100 µM (inactive) | > 100 µM (inactive) | > 49.4 µM (inactive) | 86.9 µM (inactive) | > 100 µM (inactive) | > 100 µM (inactive)
Cc1nc([N+](=O)[O-])cn1CC(=N)N | > 100 µM (inactive) | > 100 µM (inactive) | > 100 µM (inactive) |  | > 100 µM (inactive) | > 100 µM (inactive) | > 100 µM (inactive) | > 100 µM (inactive) |  | > 100 µM (inactive) | > 100 µM (inactive) | > 100 µM (inactive) | > 100 µM (inactive) | > 100 µM (inactive) | > 100 µM (inactive) | > 100 µM (inactive) | > 100 µM (inactive)
NC(=O)/C(=N\NC(=O)c1cc2ccccc2cc1O)C1C(=O)N(c2ccccc2)N=C1N (stereo not given) | 29.9 µM (inactive) | 58.7 µM (inactive) | 20.3 µM (inactive) |  | 40.5 µM (inactive) | 26.3 µM (inactive) | 15.2 µM (inactive) | 18.4 µM (inactive) | 35.6 µM (inactive) |  | 44.2 µM (inactive) | 21.7 µM (inactive) | 27.2 µM (inactive) | 17.2 µM (inactive) | 30.6 µM (inactive) | 34 µM (inactive) | 29.3 µM (inactive)
CC(=O)[O-].[O-]c1c(Cl)cc(Cl)cc1/C=N/Nc1ccccn1.[Zn+2] | 0.535 µM (active) | 0.76 µM (active) | 0.32 µM (active) |  | 5.82 µM (inactive) | 0.237 µM (active) | 0.435 µM (active) | 0.593 µM (active) | 6.3 µM (inactive) | 1.26 µM (inactive) | 6.82 µM (inactive) | 0.0601 µM (active) | 0.338 µM (active) | 0.94 µM (active) | 3.65 µM (inactive) | 1.81 µM (inactive) | 0.923 µM (active)
Cc1ccc(S(=O)(=O)OCOS(=O)(=O)c2ccc(C)cc2)cc1 | > 100 µM (inactive) | > 100 µM (inactive) | > 100 µM (inactive) | > 100 µM (inactive) | > 100 µM (inactive) | > 100 µM (inactive) | > 10 µM (inactive) | > 100 µM (inactive) | > 100 µM (inactive) | > 100 µM (inactive) |  | > 100 µM (inactive) | > 100 µM (inactive) | > 100 µM (inactive) | > 100 µM (inactive) | > 100 µM (inactive) | > 100 µM (inactive)
Cn1cc/c(=N\N=c2/ccn(C)c3ccccc23)c2ccccc21 | 13.9 µM (inactive) | 17.2 µM (inactive) | 13.2 µM (inactive) | 15.7 µM (inactive) | 16.9 µM (inactive) | 14.9 µM (inactive) | 16.2 µM (inactive) | 15.9 µM (inactive) | 13 µM (inactive) | 15.9 µM (inactive) | 12.7 µM (inactive) |  | 11.1 µM (inactive) | 19.3 µM (inactive) | 15.7 µM (inactive) | 13.1 µM (inactive) | 14.3 µM (inactive)
S=P1(c2ccccc2)Nc2ccc(Cl)cc2N1 (stereo not given) | 89.1 µM (inactive) | > 100 µM (inactive) | > 100 µM (inactive) | 37.5 µM (inactive) |  |  | 8.09 µM (inactive) | > 100 µM (inactive) | 88.9 µM (inactive) | > 100 µM (inactive) | > 100 µM (inactive) | > 100 µM (inactive) |  | > 100 µM (inactive) | > 100 µM (inactive) | > 100 µM (inactive) | 
COc1cc2c3c(c1OC)/C(=N/OS(=O)(=O)c1ccc(C)cc1)CC3N(S(=O)(=O)c1ccc(C)cc1)CC2 (stereo not given) | > 100 µM (inactive) | > 100 µM (inactive) | > 100 µM (inactive) | > 100 µM (inactive) | > 100 µM (inactive) | 93.3 µM (inactive) | > 100 µM (inactive) | > 100 µM (inactive) | > 100 µM (inactive) | > 100 µM (inactive) | > 100 µM (inactive) |  | > 100 µM (inactive) | > 100 µM (inactive) | > 100 µM (inactive) | > 100 µM (inactive) | 53.5 µM (inactive)
O=C(Nc1cc([N+](=O)[O-])cc([N+](=O)[O-])c1)OC1C2CCC1C1OC1C2 (stereo not given) | > 50 µM (inactive) | 22.9 µM (inactive) | > 50 µM (inactive) | > 50 µM (inactive) |  | > 50 µM (inactive) | > 50 µM (inactive) | 31.3 µM (inactive) | 29.1 µM (inactive) | > 50 µM (inactive) |  | > 50 µM (inactive) | 35.8 µM (inactive) | 33.7 µM (inactive) | > 50 µM (inactive) | > 50 µM (inactive) | > 50 µM (inactive)
Cc1cc2c(=O)cc(-c3ccc(Cl)cc3)oc2c(C(=O)O)c1C | > 100 µM (inactive) | > 100 µM (inactive) | > 100 µM (inactive) | > 100 µM (inactive) | > 100 µM (inactive) | > 100 µM (inactive) | > 100 µM (inactive) | > 100 µM (inactive) | > 100 µM (inactive) | > 100 µM (inactive) | > 100 µM (inactive) | > 100 µM (inactive) | > 100 µM (inactive) | > 100 µM (inactive) | > 100 µM (inactive) |  | > 100 µM (inactive)
CN(C)CCSc1cccc(-c2cc(-c3cccc(SCCN(C)C)c3)nc(SCCN(C)C)n2)c1 | 5.77 µM (inactive) | 1.87 µM (inactive) | 4.49 µM (inactive) | 30.1 µM (inactive) | 12.1 µM (inactive) | 1.42 µM (inactive) | 17.5 µM (inactive) | 1.55 µM (inactive) | 1.66 µM (inactive) | 1.77 µM (inactive) | 1.55 µM (inactive) | 7.96 µM (inactive) | 1.17 µM (inactive) |  | 1.71 µM (inactive) | 16.3 µM (inactive) | 1.35 µM (inactive)
CCOC(=O)C1=C(NC)OC/C1=N\NC(=O)c1ccccc1O |  | 26.9 µM (inactive) | 6.87 µM (inactive) | > 100 µM (inactive) | 45.9 µM (inactive) | 24.2 µM (inactive) | 7.03 µM (inactive) | 35.8 µM (inactive) | 53.2 µM (inactive) | 13 µM (inactive) |  | 12.8 µM (inactive) | 9.29 µM (inactive) | 6.53 µM (inactive) | 32.1 µM (inactive) | 28 µM (inactive) | 16.7 µM (inactive)
Cc1cc(N(CCC#N)CCC#N)ccc1/N=N/c1ccc(S(N)(=O)=O)cc1 | > 100 µM (inactive) | > 100 µM (inactive) | > 100 µM (inactive) | > 100 µM (inactive) | > 100 µM (inactive) | > 100 µM (inactive) | > 100 µM (inactive) | > 100 µM (inactive) | > 100 µM (inactive) | > 100 µM (inactive) | > 100 µM (inactive) | > 100 µM (inactive) |  | > 100 µM (inactive) | > 100 µM (inactive) | > 100 µM (inactive) | > 100 µM (inactive)
CCCCCCCCCCCCCCCCCC(=O)OCC(CN(C)CCN(C)C)OC(=O)CCCCCCCCCCCCCCCCC (stereo not given) | 91.6 µM (inactive) | > 100 µM (inactive) | > 100 µM (inactive) | > 100 µM (inactive) | > 100 µM (inactive) | 72.6 µM (inactive) | > 100 µM (inactive) | > 100 µM (inactive) | 88.5 µM (inactive) |  | 40.2 µM (inactive) | > 100 µM (inactive) | 55.2 µM (inactive) | 45.3 µM (inactive) | 55.3 µM (inactive) | > 100 µM (inactive) | > 100 µM (inactive)
COc1cccc(NC(=O)CC(=O)N2N=C(N3c4ccccc4Sc4ccccc43)CC2c2ccccc2)c1 (stereo not given) | > 100 µM (inactive) | > 100 µM (inactive) | > 100 µM (inactive) | > 100 µM (inactive) | > 100 µM (inactive) | > 100 µM (inactive) | > 100 µM (inactive) | > 100 µM (inactive) | > 100 µM (inactive) | > 100 µM (inactive) | > 100 µM (inactive) |  | > 100 µM (inactive) | > 100 µM (inactive) | > 100 µM (inactive) | > 100 µM (inactive) | > 100 µM (inactive)
